≈ marks a conversion by molar mass, not a printed value. Like-named read-outs stand apart in the source and are kept apart here. Marks after values point to notes of the source that are not given here.

The conditions of series [1]: apparent solubility, cited from earlier work; for SFaSSIF-V1: FaSSIF-V1 pH 6.5; for SFeSSIF-V1: FeSSIF-V1 pH 5.
A short description of series [2]: Intrinsic dissolution rate from controlled suspensions (SIDR), μDiss Profiler. The format is physicochemical. As to conditions: for IDRFaSSIF-V1 / IDRFaSSIF-V2 / IDRFeSSIF-V2: suspension (S), 100 rpm, mean ± SD; for IDRFaSSIF-V1: FaSSIF-V1 pH 6.5, 37 °C; for IDRFaSSIF-V2: FaSSIF-V2 pH 6.5, 37 °C; for IDRFeSSIF-V2: FeSSIF-V2 pH 5.8, 37 °C; for IDR in fed-state medium (FeSSIF-V1) compared to fasted-state (FaSSIF-V1): suspension assays. The method, then:
Controlled suspensions of the APIs were prepared by tip ultrasonication in suspension media. For compatibility reasons, the suspension medium composition was 2% PVP K30 and 0.2% SDS in MilliQ water for acidic and neutral compounds or 1% HPMC and 0.2% SDS in MilliQ water for basic compounds. Suspension media were stirred for at least an hour until a clear solution was obtained. All suspensions were prepared at a concentration of 4 mg API/mL suspension medium by weighing 16 mg of the compound into a glass vial and adding 4 mL of the corresponding suspension medium. The suspension was then briefly vortexed prior to 5 min of tip ultrasonication using a Vibra-Cell sonicator mounted with a 13 mm (Ø) probe tip (Sonics, Newtown, CT, USA). The following settings were used: 20% amplitude, pulse 10 s on and 5 s off. The vial containing the suspension was placed in a beaker with ice during ultrasonication to avoid heating. Felodipine and griseofulvin were treated slightly differently to avoid forming a large fraction of submicron-sized particles. The felodipine suspension was only ultrasonicated for 1 min, and the griseofulvin suspension was used immediately after vortexing and without ultrasonication. All prepared suspensions were kept in an oven at 37 °C prior to use in the dissolution experiments. Dissolution experiments were performed within three hours of sample preparation.
The freshly prepared suspension was diluted (100 µL in 1 mL MilliQ water) and immediately used for determination of hydrodynamic particle size by dynamic light scattering (DLS; Litesizer 500, Anton Paar GmbH, Graz, Austria) at 25 °C. Peak values from the intensity-based particle size distribution were used for calculating total particle surface area in the suspension following the approach of Andersson et al.. In case of bimodal particle size distributions, an intensity peak weighted average particle size was calculated. The following assumptions were made for the surface area calculations: (i) spherical particles, (ii) constant particle size, and (iii) constant number of particles during the initial phase of the dissolution experiment (i.e., under sink conditions or <0.3 × Sapp). Using these assumptions, the volume of each particle (Vparticle) is:(1) Vparticle=4πr^3/3, where r is the mean radius of the suspended particles. The particle surface area (SAparticle) is:(2) SAparticle=4πr^2, and the volume of compound (Vmaterial) added to the dissolution medium is:(3) Vmaterial=m/ρ, where m is the total mass of compound added and ρ is the density of the compound. The total number of particles (n) in the suspension can thus be calculated from:(4) nparticles=Vmaterial/Vparticle
Finally, the total surface area (A, cm^2) of all particles present in the suspension added to the dissolution medium is calculated through:(5) A=nparticlesSAparticle
Dissolution experiments were carried out in a small-scale dissolution apparatus using in situ fiber optic probes to measure the amount of drug dissolved over time by UV absorbance (μDiss Profiler, Pion Inc., Billerica, MA, USA). Drug dissolution was carried out from suspensions (S) or discs (D) depending on the solubility of the compound in the biorelevant media studied (Table 3). […].
Standard curves were established by adding aliquots of DMSO stock solutions of the compounds to 3 mL of biorelevant medium, respectively. Dissolution media were prepared following the protocol provided by Biorelevant.com Ltd. and used within 48 h after their preparation. The media were incubated at 37 °C for at least one hour prior to use in the dissolution experiments. The hydrodynamic diameter of the micelles/vesicles formed in the biorelevant media were measured by DLS (Table 2). […] The biorelevant dissolution medium was maintained at 37 °C in the μDiss Profiler and stirred at 800 rpm during addition of the DMSO stock aliquots. […]

Series [3] in a line: Apparent solubility estimated from dissolution experiments in the μDiss Profiler. It is filed as physicochemical. As to conditions: for solubility thermodynamic: thermodynamic from solid. How it is done: If literature values were not available, Sapp values were estimated from the dissolution experiments either from the steady state concentration reached during dissolution making use of an excess amount material, or by nonlinear regression analysis of the dissolution data in GraphPad Prism 7.04 (GraphPad Software Inc., San Diego, CA, USA). […] In these experiments, an excess amount of drug was added to triplicate Eppendorf tubes containing 1 mL of the respective dissolution medium. The tubes were vortexed and placed in a 37 °C incubator. Samples for HPLC analysis were taken 24, 48, and 72 h (triplicates at each time point) after initiation of the experiment to ensure that equilibrium had been reached. The samples were centrifuged at 37 °C, 23,000 g for 10 min (Heraeus Megafuge 8R, Thermo Scientific, Waltham, MA, USA). The supernatant was sampled, diluted 1:1 with acetonitrile, and kept refrigerated until HPLC analysis. The concentrations of the dissolved drugs were determined using a HPLC (Agilent Technologies 1290 Infinity, Santa Clara, CA, USA) with a Zorbax Eclipse XDB-C18 column (4.6 × 100 mm; Agilent Technologies, Santa Clara, CA, USA) kept at 40 °C. The injection volumes were 20 μL. A mobile phase 0.1% formic acid in acetonitrile: 0.1% formic acid in water 60:40 (v/v) and an isocratic flow rate at 1 mL/min were used for both naproxen and ethinylestradiol. UV absorbances were monitored at a wavelength of 232 nm for naproxen and 315 nm for ethinylestradiol. The retention time was 1.76 min for naproxen and 1.85 min for ethinylestradiol. Dissolution experiments were carried out in a small-scale dissolution apparatus using in situ fiber optic probes to measure the amount of drug dissolved over time by UV absorbance (μDiss Profiler, Pion Inc., Billerica, MA, USA). Drug dissolution was carried out from suspensions (S) or discs (D) depending on the solubility of the compound in the biorelevant media studied (Table 3). […] Glass vials (six in parallel), each containing 15 mL of biorelevant dissolution medium and a crossbar stirrer, were used for the dissolution experiments. The stirring rate was set to 100 rpm. Freshly prepared API suspensions were briefly vortexed to re-disperse any sediments and 500 μL of suspension was added to each vial to initiate the experiment. […] Experiments were run for at least 20 min with data collected every 1 s for the first 8 min and then once per minute for the remaining time. All dissolution experiments from suspensions were carried out in triplicate.

Setting [4] is: FaSSIF-V1, 37 °C, pH 6.5, fassif, FaSSIF-V1 pH 6.5, determined from dissolution experiments in the μDiss Profiler, read-out: SFaSSIF-V1.
[5] abbreviates: FeSSIF-V1, 37 °C, pH 5, fessif, FeSSIF-V1 pH 5, determined from dissolution experiments in the μDiss Profiler, read-out: SFeSSIF-V1.

For the compound `COc1ccc(CCN2CCC(Nc3nc4ccccc4n3Cc3ccc(F)cc3)CC2)cc1` [Astemizole], in series [1], the SFaSSIF-V1 is 97.9 ± 2.1 [15] μg/mL and the SFeSSIF-V1 was 182 ± 1 [15] μg/mL. In addition, the SFaSSIF-V1 in series [1] (listed as astemizole) is ~ 100 μg/mL. In series [2], this compound registered an IDRFaSSIF-V1 of 8.6 ± 0.4 μg/min/cm^2 and an IDRFaSSIF-V2 of 2.0 ± 0.2 μg/min/cm^2.
For the compound `CC(C)(Oc1ccc(CCNC(=O)c2ccc(Cl)cc2)cc1)C(=O)O` [Bezafibrate], the solubility thermodynamic in series [3] (setting [4]) was ~100 µg/mL (≈ 276 µM). Further, in series [3] (FaSSIF-V1 pH 6.5, determined from dissolution experiments in the μDiss Profiler), the SFaSSIF-V1 was 91.0 ± 8.9 µg/mL. Besides, the SFeSSIF-V1 in series [3] (FeSSIF-V1 pH 5, extrapolation of μDiss dissolution data by nonlinear regression (GraphPad Prism)) is 105.7 ‡ μg/mL. For the same compound, the IDRFaSSIF-V1 in series [2] stood at 32.7 ± 3.9 μg/min/cm^2.
With `COc1ccccc1OCCNCC(O)COc1cccc2[nH]c3ccccc3c12` (stereo not shown) [Carvedilol], in series [1], the SFaSSIF-V1 is 55.9 ± 1.0 [15] μg/mL and the SFeSSIF-V1 is 305 ± 2 [15] μg/mL. In addition, in series [2], the IDRFaSSIF-V1 turned out to be 2.9 ± 0.5 μg/min/cm^2, the IDRFaSSIF-V2 is recorded as 1.5 ± 0.2 μg/min/cm^2 and the IDRFeSSIF-V2 is reported as 13.6 ± 0.6 μg/min/cm^2.
In series [2], `C(=C\c1ccccc1)/CN1CCN(C(c2ccccc2)c2ccccc2)CC1` [Cinnarizine] registered an IDRFaSSIF-V1 of 0.3 ± 0.01 μg/min/cm^2.
Regarding `C#C[C@]1(O)CC[C@H]2[C@@H]3CCC4=Cc5oncc5C[C@]4(C)[C@H]3CC[C@@]21C` [Danazol], in series [2], the IDRFaSSIF-V1 turned out to be 0.14 ± 0.02 μg/min/cm^2 and the “IDR in fed-state medium (FeSSIF-V1) compared to fasted-state (FaSSIF-V1)” value (from here on “IDR … compared to fasted-state (FaSSIF-V1)”) is 28 fold.
As for `OCCN(CCO)c1nc(N2CCCCC2)c2nc(N(CCO)CCO)nc(N3CCCCC3)c2n1` [Dipyridamole], in series [1], the SFaSSIF-V1 is 11.1 ± 3.0 [48] μg/mL and the SFeSSIF-V1 was 148.9 ± 19.7 [48] μg/mL. Besides, the SFaSSIF-V1 in series [1] (listed as dipyridamole) is 11 to 13 µg/mL. Further, in series [2], the IDRFaSSIF-V1 was found to be 0.5 ± 0.05 μg/min/cm^2, the IDRFaSSIF-V2 is listed as 0.5 ± 0.03 μg/min/cm^2 and the IDRFeSSIF-V2 is on record as 1.7 ± 0.3 μg/min/cm^2.
For the compound `CCOC(=O)C1=C(C)NC(C)=C(C(=O)OC)C1c1cccc(Cl)c1Cl` (stereo not shown) [Felodipine], in series [1], the SFaSSIF-V1 is 31.8 ± 1.7 [7] μg/mL and the SFeSSIF-V1 is 44.9 ± 9.2 [48] μg/mL. For the same compound, in series [2], the IDRFaSSIF-V1 came out at 0.8 ± 0.4 μg/min/cm^2, the IDRFaSSIF-V2 amounted to 0.6 ± 0.2 μg/min/cm^2 and the IDRFeSSIF-V2 turned out to be 1.5 ± 0.2 μg/min/cm^2.
In series [2], `CC(C)OC(=O)C(C)(C)Oc1ccc(C(=O)c2ccc(Cl)cc2)cc1` [Fenofibrate] came in with an IDRFaSSIF-V1 of 0.04 ± 0.002 μg/min/cm^2, an IDRFaSSIF-V2 of 0.05 ± 0.001 μg/min/cm^2 and an IDRFeSSIF-V2 of 2.7 ± 0.3 μg/min/cm^2.
Take `COC1=CC(=O)C[C@@H](C)[C@]12Oc1c(Cl)c(OC)cc(OC)c1C2=O` [Griseofulvin]: in series [1], the SFaSSIF-V1 was 23.4 ± 1.8 [41] μg/mL and the SFeSSIF-V1 was 29.2 ± 3.4 [41] μg/mL. Besides, in series [2], the IDRFaSSIF-V1 amounted to 3.7 ± 0.6 μg/min/cm^2 and the “IDR … compared to fasted-state (FaSSIF-V1)” value was “lower”.
In the case of `Cc1cccc(Nc2ccccc2C(=O)O)c1C` [Mefenamic acid], the solubility thermodynamic in series [3] (setting [4]) was 36.6 ± 0.6 µg/mL (≈ 152 µM). Also, in series [3] (setting [5]), the solubility thermodynamic is 33.2 ± 0.7 µg/mL (≈ 138 µM). In series [2], this compound returned an IDRFaSSIF-V1 of 13.9 ± 2.0 μg/min/cm^2, an IDRFaSSIF-V2 of 11.9 ± 1.0 μg/min/cm^2 and an IDRFeSSIF-V2 of 7.9 ± 2.1 μg/min/cm^2.
For `COc1ccc2c(c1OC)C(=O)O[C@@H]2[C@H]1c2c(cc3c(c2OC)OCO3)CCN1C` [Noscapine], the SFaSSIF-V1 in series [3] (FaSSIF-V1 pH 6.5, extrapolation of μDiss dissolution data by nonlinear regression (GraphPad Prism)) is 13.4 ‡ μg/mL. Also, in series [3] (FaSSIF-V1 pH 6.5, extrapolation of μDiss dissolution data by nonlinear regression (GraphPad Prism), listed as noscapine), the SFaSSIF-V1 is 11 to 13 µg/mL. For the same compound, in series [2], the IDRFaSSIF-V1 was 1.1 ± 0.2 μg/min/cm^2, the IDRFaSSIF-V2 stood at 1.2 ± 0.1 μg/min/cm^2 and the IDRFeSSIF-V2 was 5.2 ± 0.8 μg/min/cm^2.
As for `CC(=O)[C@H]1CC[C@H]2[C@@H]3CCC4=CC(=O)CC[C@]4(C)[C@H]3CC[C@]12C` [Progesterone], in series [1], the SFaSSIF-V1 was 25.5 ± 1.1 [50] μg/mL and the SFeSSIF-V1 was 78.6 ± 16.2 [41] μg/mL. The same compound had an IDRFaSSIF-V1 in series [2] of 16.8 ± 0.5 μg/min/cm^2.
`CN1CC(=O)N2[C@H](c3ccc4c(c3)OCO4)c3[nH]c4ccccc4c3C[C@@H]2C1=O` [Tadalafil]: the SFaSSIF-V1 in series [1] is 5.9 ± 0.7 [7] μg/mL. Besides, the solubility thermodynamic in series [3] (setting [5]) was 21 ± 0.5 µg/mL (≈ 53.9 µM). In series [2], the IDRFaSSIF-V1 was 3.4 ± 0.7 μg/min/cm^2, the IDRFaSSIF-V2 was 1.3 ± 0.8 μg/min/cm^2 and the “IDR … compared to fasted-state (FaSSIF-V1)” value was “double”.
For the compound `Cc1c(Cl)cccc1Nc1ccccc1C(=O)O` [Tolfenamic acid], in series [1], the SFaSSIF-V1 is 63.0 ± 2.7 [15] μg/mL and the SFeSSIF-V1 is 41.0 ± 0.5 [15] μg/mL. In series [2], this compound gave an IDRFaSSIF-V1 of 4.1 ± 0.8 μg/min/cm^2, an IDRFaSSIF-V2 of 12.9 ± 0.9 μg/min/cm^2 and an IDRFeSSIF-V2 of 4.8 ± 0.6 μg/min/cm^2.
